Results as given in the supplement of paper PMC10307832.

Assays:
Assay in all cases: relative viability (nuclei count vs DMSO), 5 days (fraction); higher = more cells survive
A-427 = system: A-427
In short: (§1)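 Values are medians from duplicate plates. Each reflects relative viability, defined as the nuclei count of treated wells over that of vehicle wells. Lung cancer cell lines in 1536-well plates were pin-tool dosed one day after seeding with one drug alone or with a fixed anchor-drug dose plus five library-drug doses (not always all listed) in √10 steps, then fixed, stained and imaged at 4× after 5 days.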

ABC-1 = system: ABC-1
In short: as §1

EPLC-272H = system: EPLC-272H
In short: as §1

HCC-15 = system: HCC-15
In short: as §1

LC-2-ad = system: LC-2-ad
In short: as §1

LK-2 = system: LK-2
In short: as §1

NCI-H1734 = system: NCI-H1734
In short: as §1

NCI-H1793 = system: NCI-H1793
In short: as §1

NCI-H1915 = system: NCI-H1915
In short: as §1

NCI-H1944 = system: NCI-H1944
In short: as §1

NCI-H2009 = system: NCI-H2009
In short: as §1

NCI-H2023 = system: NCI-H2023
In short: as §1

NCI-H2342 = system: NCI-H2342
In short: as §1

NCI-H2347 = system: NCI-H2347
In short: as §1

NCI-H322M = system: NCI-H322M
In short: as §1

NCI-H358 = system: NCI-H358
In short: as §1

NCI-H441 = system: NCI-H441
In short: as §1

NCI-H522 = system: NCI-H522
In short: as §1

NCI-H647 = system: NCI-H647
In short: as §1

NCI-H838 = system: NCI-H838
In short: as §1

RERF-LC-KJ = system: RERF-LC-KJ
In short: as §1

SW 1573 = system: SW 1573
In short: as §1

UMC-11 = system: UMC-11
In short: as §1

Cc1cn(-c2cc(NC(=O)c3ccc(C)c(Nc4nccc(-c5cccnc5)n4)c3)cc(C(F)(F)F)c2)cn1 [Nilotinib] + O=C(CCCCCCC(=O)Nc1ccccc1)NO [Vorinostat] (partner 1 µM) was tested, and the relative viability (A-427; first compound 0.001 µM) was 0.839, the relative viability (A-427; first compound 0.003162 µM) was 0.892 and the relative viability (A-427; first compound 0.01 µM) was 0.935. For the same compound, the relative viability (A-427; first compound 0.03162 µM) was 0.963, the relative viability (A-427; first compound 0.1 µM) was 0.775 and the relative viability (ABC-1; first compound 0.001 µM) was 1.07. For the same compound, the relative viability (ABC-1; first compound 0.003162 µM) was 1.03, the relative viability (ABC-1; first compound 0.01 µM) was 1.11 and the relative viability (ABC-1; first compound 0.03162 µM) was 1.1. The relative viability (ABC-1; first compound 0.1 µM) was 0.754, the relative viability (EPLC-272H; first compound 0.001 µM) was 0.376 and the relative viability (EPLC-272H; first compound 0.003162 µM) was 0.331. It also gave a relative viability (EPLC-272H; first compound 0.01 µM) of 0.37, a relative viability (EPLC-272H; first compound 0.03162 µM) of 0.407 and a relative viability (EPLC-272H; first compound 0.1 µM) of 0.579. The relative viability (HCC-15; first compound 0.001 µM) was 0.791, the relative viability (HCC-15; first compound 0.003162 µM) was 0.913 and the relative viability (HCC-15; first compound 0.01 µM) was 0.936. For the same compound, the relative viability (HCC-15; first compound 0.03162 µM) was 0.616, the relative viability (HCC-15; first compound 0.1 µM) was 0.761 and the relative viability (LC-2-ad; first compound 0.001 µM) was 0.644. The relative viability (LC-2-ad; first compound 0.003162 µM) was 0.851, the relative viability (LC-2-ad; first compound 0.01 µM) was 0.772 and the relative viability (LC-2-ad; first compound 0.03162 µM) was 0.545. The relative viability (LC-2-ad; first compound 0.1 µM) was 0.318, the relative viability (LK-2; first compound 0.001 µM) was 0.261 and the relative viability (LK-2; first compound 0.003162 µM) was 0.23. The relative viability (LK-2; first compound 0.01 µM) was 0.342, the relative viability (LK-2; first compound 0.03162 µM) was 0.199 and the relative viability (LK-2; first compound 0.1 µM) was 0.27. It also gave a relative viability (NCI-H1734; first compound 0.001 µM) of 0.761, a relative viability (NCI-H1734; first compound 0.003162 µM) of 0.803 and a relative viability (NCI-H1734; first compound 0.01 µM) of 0.832. It also gave a relative viability (NCI-H1734; first compound 0.03162 µM) of 0.626, a relative viability (NCI-H1734; first compound 0.1 µM) of 0.371 and a relative viability (NCI-H1793; first compound 0.001 µM) of 0.64. It also gave a relative viability (NCI-H1793; first compound 0.003162 µM) of 0.841, a relative viability (NCI-H1793; first compound 0.01 µM) of 0.688 and a relative viability (NCI-H1793; first compound 0.03162 µM) of 0.386. It also gave a relative viability (NCI-H1793; first compound 0.1 µM) of 0.257, a relative viability (NCI-H1915; first compound 0.001 µM) of 0.454 and a relative viability (NCI-H1915; first compound 0.003162 µM) of 0.488. The relative viability (NCI-H1915; first compound 0.01 µM) was 0.501, the relative viability (NCI-H1915; first compound 0.03162 µM) was 0.385 and the relative viability (NCI-H1915; first compound 0.1 µM) was 0.299. The relative viability (NCI-H1944; first compound 0.001 µM) was 0.558, the relative viability (NCI-H1944; first compound 0.003162 µM) was 0.795 and the relative viability (NCI-H1944; first compound 0.01 µM) was 0.671. It also gave a relative viability (NCI-H1944; first compound 0.03162 µM) of 0.481, a relative viability (NCI-H1944; first compound 0.1 µM) of 0.457 and a relative viability (NCI-H2009; first compound 0.001 µM) of 0.607. For the same compound, the relative viability (NCI-H2009; first compound 0.003162 µM) was 0.755, the relative viability (NCI-H2009; first compound 0.01 µM) was 0.743 and the relative viability (NCI-H2009; first compound 0.03162 µM) was 0.579. For the same compound, the relative viability (NCI-H2009; first compound 0.1 µM) was 0.46, the relative viability (NCI-H2023; first compound 0.001 µM) was 0.469 and the relative viability (NCI-H2023; first compound 0.003162 µM) was 0.455. For the same compound, the relative viability (NCI-H2023; first compound 0.01 µM) was 1.06, the relative viability (NCI-H2023; first compound 0.03162 µM) was 0.41 and the relative viability (NCI-H2023; first compound 0.1 µM) was 0.174. The relative viability (NCI-H2342; first compound 0.001 µM) was 0.675, the relative viability (NCI-H2342; first compound 0.003162 µM) was 0.685 and the relative viability (NCI-H2342; first compound 0.01 µM) was 0.668. It also gave a relative viability (NCI-H2342; first compound 0.03162 µM) of 0.681, a relative viability (NCI-H2342; first compound 0.1 µM) of 0.655 and a relative viability (NCI-H2347; first compound 0.001 µM) of 0.601. The relative viability (NCI-H2347; first compound 0.003162 µM) was 0.516, the relative viability (NCI-H2347; first compound 0.01 µM) was 0.712 and the relative viability (NCI-H2347; first compound 0.03162 µM) was 0.495. For the same compound, the relative viability (NCI-H2347; first compound 0.1 µM) was 0.431, the relative viability (NCI-H322M; first compound 0.001 µM) was 0.896 and the relative viability (NCI-H322M; first compound 0.003162 µM) was 0.68. It also gave a relative viability (NCI-H322M; first compound 0.01 µM) of 0.962, a relative viability (NCI-H322M; first compound 0.03162 µM) of 0.848 and a relative viability (NCI-H322M; first compound 0.1 µM) of 0.913. For the same compound, the relative viability (NCI-H358; first compound 0.001 µM) was 0.601, the relative viability (NCI-H358; first compound 0.003162 µM) was 0.747 and the relative viability (NCI-H358; first compound 0.01 µM) was 0.834. For the same compound, the relative viability (NCI-H358; first compound 0.03162 µM) was 0.411, the relative viability (NCI-H358; first compound 0.1 µM) was 0.424 and the relative viability (NCI-H441; first compound 0.001 µM) was 0.544. The relative viability (NCI-H441; first compound 0.003162 µM) was 1.02, the relative viability (NCI-H441; first compound 0.01 µM) was 0.742 and the relative viability (NCI-H441; first compound 0.03162 µM) was 0.532. The relative viability (NCI-H441; first compound 0.1 µM) was 0.71, the relative viability (NCI-H522; first compound 0.01 µM) was 1.01 and the relative viability (NCI-H522; first compound 0.03162 µM) was 0.749. It also gave a relative viability (NCI-H522; first compound 0.1 µM) of 0.786, a relative viability (NCI-H647; first compound 0.001 µM) of 0.433 and a relative viability (NCI-H647; first compound 0.003162 µM) of 0.671. It also gave a relative viability (NCI-H647; first compound 0.01 µM) of 0.418, a relative viability (NCI-H647; first compound 0.03162 µM) of 0.314 and a relative viability (NCI-H647; first compound 0.1 µM) of 0.245. The relative viability (NCI-H838; first compound 0.001 µM) was 0.693, the relative viability (NCI-H838; first compound 0.003162 µM) was 0.783 and the relative viability (NCI-H838; first compound 0.01 µM) was 0.753. The relative viability (NCI-H838; first compound 0.03162 µM) was 0.726, the relative viability (NCI-H838; first compound 0.1 µM) was 0.688 and the relative viability (RERF-LC-KJ; first compound 0.001 µM) was 0.624. For the same compound, the relative viability (RERF-LC-KJ; first compound 0.003162 µM) was 0.698, the relative viability (RERF-LC-KJ; first compound 0.01 µM) was 0.734 and the relative viability (RERF-LC-KJ; first compound 0.03162 µM) was 0.568. The relative viability (RERF-LC-KJ; first compound 0.1 µM) was 0.453, the relative viability (SW 1573; first compound 0.001 µM) was 0.527 and the relative viability (SW 1573; first compound 0.003162 µM) was 0.849. It also gave a relative viability (SW 1573; first compound 0.01 µM) of 0.977, a relative viability (SW 1573; first compound 0.03162 µM) of 0.438 and a relative viability (SW 1573; first compound 0.1 µM) of 0.222. The relative viability (UMC-11; first compound 0.001 µM) was 0.359, the relative viability (UMC-11; first compound 0.003162 µM) was 0.398 and the relative viability (UMC-11; first compound 0.01 µM) was 0.346. For the same compound, the relative viability (UMC-11; first compound 0.03162 µM) was 0.336 and the relative viability (UMC-11; first compound 0.1 µM) was 0.458.
